Reference: patent US9163011B2, “Oxazine derivatives and their use in the treatment of disease” (NOVARTIS AG, priority 2011, dated 2015)

Legend:
[1] = system: Soluble Abeta40 levels in the rat brain and CSF; test: Test 5: In Vivo Inhibitory Activity (Abeta lowering in rat brain and CSF); details: male Sprague-Dawley rats, oral gavage, 10 micromoles per kilogram, 4 hours prior to sacrifice; n.s.=not statistically significant
Procedure: Test 5: In Vivo Inhibitory Activity of Example Compounds
Male Sprague-Dawley rats, 220-280 g weight, (Charles River, France) were dosed by oral gavage with vehicle alone (0.1% Tween80, 0.5% methylcellulose in water) or with compound suspended in vehicle at a dose of 10 micromoles compound per kilogram body weight, 4 hours prior to sacrifice. The 4 hour timepoint was selected in order to compare the activity of compounds that have sufficient pharmacokinetic and biodistribution properties to reduce total brain Abeta within approximately three half-lives of the rat brain Abeta40 peptide.
Immediately prior to sacrifice, anaesthetized rat (spontaneous inhalation, 2-5% Isoflurane and air) were fixed in a stereotaxic apparatus on a raised platform, with anesthesia maintained though a nose cone. The angle of the head was tilted downward, perpendicular to the body, and a hypodermic needle lowered through the skin behind the occipital ridge, into the Cisterna magna. Cerebrospinal fluid (CSF) was withdrawn (˜50-100 μL), dispensed into tubes (protein Lo-bind Eppendorf tubes for Abeta40 analysis, normal Eppendorph tubes for compound analysis), frozen on dry ice and stored at −80° C. until analysis. Rats were then immediately decapitated under anesthesia, trunk blood collected for analysis of compound levels and the brain retrieved. One half-forebrain was dissected by removing the cerebellum and olfactory bulbs, frozen in three pieces on a metal plate pre-cooled on frozen CO2 and stored in tubes at −80° C. until analysis for Abeta40. For the other half-brain, olfactory bulbs were discarded and a sagittal slice taken from the medial aspect, weighing ˜200-400 mg, placed in glass HPLC tubes and frozen on dry ice until analysis for compound levels.
Soluble Abeta40 levels in the rat brain and CSF were quantified using a Meso Scale Discovery (MSD) 96-well MULTI-ARRAY human/rodent (4G8) Abeta40 Ultrasensitive Assay (#K110FTE-3, Meso Scale Discovery, Gaithersburg, USA). Forebrain sample homogenates were prepared by sonication in 9 volumes (w/v) of ice cold TBA. Fifty μL of 2% TX-100 in TBS-complete was added to 50 μL aliquots of the homogenate to reach a final concentration of 1% TX-100 in a 1:20 dilution. Samples were incubated on ice for 15 min interrupted with 3 short vortexing steps, then centrifuged (100 000×g, 4° C., 15 min), and 50 μL of supernatant collected. This was further diluted 1:5 with 3% Blocker A solution from the MSD kit to a final dilution of 1:100 and applied to the MSD plate. CSF samples containing blood were excluded. All other CSF samples were diluted with 1% Blocker A solution (from manufacturers kit) to reach a 1:20 CSF dilution. Calibration curves were prepared in 1% Blocker A solution spiked with synthetic Abeta1-40 peptide. Samples and calibration standards were applied in duplicate at a volume of 25 μL per well. Abeta40 concentrations of samples were estimated from the standard curve using SOFTmax PRO4.0.

Human BACE-1 = Human BACE-1 (Homo sapiens (Human), UniProt P56817); test: Test 1: Inhibition of Human BACE-1; type: biochemical; details: recombinant BACE-1, pH 4.5, 1 hour preincubation
Sequence of Human BACE-1 (P56817 46-457): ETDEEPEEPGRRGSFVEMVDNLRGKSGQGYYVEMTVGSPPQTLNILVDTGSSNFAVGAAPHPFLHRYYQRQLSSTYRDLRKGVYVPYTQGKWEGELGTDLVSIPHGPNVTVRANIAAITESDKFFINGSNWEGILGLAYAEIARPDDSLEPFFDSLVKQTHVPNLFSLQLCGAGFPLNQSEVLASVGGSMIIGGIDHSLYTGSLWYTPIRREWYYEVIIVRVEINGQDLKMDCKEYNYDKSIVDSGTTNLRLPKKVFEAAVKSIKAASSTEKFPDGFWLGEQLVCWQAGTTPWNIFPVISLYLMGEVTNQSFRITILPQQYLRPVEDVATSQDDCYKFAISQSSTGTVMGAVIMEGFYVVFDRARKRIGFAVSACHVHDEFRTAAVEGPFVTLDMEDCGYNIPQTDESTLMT
Procedure: Test 1: Inhibition of Human BACE-1
(§1) Recombinant BACE-1 (extracellular domain, expressed in baculovirus and purified using standard methods) at 0.1 to 1 nM concentrations is incubated with the test compound at various concentrations for 1 hour at room temperature in 100 mM acetate buffer, pH 4.5, containing 0.1% CHAPS. Activity was measured using a final concentration of 3 μM of the fluorescence-quenched substrate Q-C(HSO3)-Ile-Asp-Leu-Ala-Val-Leu-Asp-HN—CH2—CH2-Mca, where Q=2-nitro-5-amino benzoic acid and Mca=7-methoxy-4-coumarinyl acetic acid. Catalytic turnover was monitored in a Spectramax Gemini fluorescence plate reader (Molecular Devices) in black 96-well microplates using excitation/emission wavelength of 325 nm and 400 nm, respectively. Fluorescence increase was followed for 15 min, in 1 minute's intervals. The fluorescence/time slopes were calculated from duplicate wells and from wells without inhibitor and the IC50 values were calculated using a logistic 4-parameter model.

Human BACE-2 = Human BACE-2 (Homo sapiens (Human), UniProt Q9Y5Z0); test: Test 2: Inhibition of Human BACE-2; type: biochemical; details: recombinant BACE-2, pH 4.5, 1 hour preincubation
Sequence of Human BACE-2 (Q9Y5Z0 63-473): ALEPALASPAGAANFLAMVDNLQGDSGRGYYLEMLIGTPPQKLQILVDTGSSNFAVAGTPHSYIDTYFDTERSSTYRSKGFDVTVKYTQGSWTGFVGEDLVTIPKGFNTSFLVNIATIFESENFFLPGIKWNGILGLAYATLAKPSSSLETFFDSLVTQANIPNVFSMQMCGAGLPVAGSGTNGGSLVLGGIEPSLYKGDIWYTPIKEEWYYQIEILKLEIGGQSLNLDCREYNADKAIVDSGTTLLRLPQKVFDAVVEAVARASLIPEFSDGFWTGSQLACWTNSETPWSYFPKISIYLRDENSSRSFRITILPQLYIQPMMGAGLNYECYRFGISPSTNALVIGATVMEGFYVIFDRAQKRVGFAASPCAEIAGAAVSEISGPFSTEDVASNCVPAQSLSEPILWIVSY
Procedure: Test 2: Inhibition of Human BACE-2
as §1, with “BACE-2” for “BACE-1”

[2] = Test 4: Inhibition of Cellular Release of Amyloid Peptide 1-40; type: cell-based, Chinese hamster; details: Cricetulus griseus; CHO cells with human APP, 24 hours with compound; read-out: Test 4 Amyloid-β1-40 release IC50
Procedure: The cells are plated at a density of 8000 cells/well into 96-well microtiter plates and cultivated for 24 hours in DMEM cell culture medium containing 10% FCS. The test compound is added to the cells at various concentrations, and the cells are cultivated for 24 hours in the presence of the test compound. […] The potency of the compound is calculated from the percentage of inhibition of amyloid peptide release as a function of the test compound concentration.

Row | Structure (SMILES) | Abeta lowering in rat CSF [1] | Abeta lowering in rat forebrain [1] | IC50 (Human BACE-1) | IC50 (Human BACE-2) | IC50 [2]
1 | CC1(C)OC(N)=N[C@](C)(c2nc(NC(=O)c3ncc(C#N)cc3Cl)ccc2F)C1(F)F [Example 3, 3-Chloro-5-cyano-pyridine-2-carboxylic acid [6-((R)-2-amino-5,5-difluoro-4,6,6-trimethyl-5,6-dihydro-4H-[1,3]oxazin-4-yl)-5-fluoro-pyridin-2-yl]-amide] | −35.3% | −20.0% |  |  | 
2 | C[C@]1(c2nc(NC(=O)c3nn(C(F)F)cc3Cl)ccc2F)N=C(N)OCC1(F)F [Example 30, 4-Chloro-1-difluoromethyl-1H-pyrazole-3-carboxylic acid [6-((R)-2-amino-5,5-difluoro-4-methyl-5,6-dihydro-4H-[1,3]oxazin-4-yl)-5-fluoro-pyridin-2-yl]-amide] | −55.2% | −46.6% | 19 nM | 7 nM | 13 nM
3 | CC1(c2cc(NC(=O)c3ncc(C#N)cc3Cl)ccc2F)N=C(N)OCC1(F)F (centres unmarked) [39 WO 2011/069934 A1, reference compound] | −8.2% (n.s.) | −1.4% (n.s.) |  |  | 
4 | CC1(c2cc(NC(=O)c3nn(C(F)F)cc3Cl)ccc2F)N=C(N)OCC1(F)F (centres unmarked) [71 WO 2011/069934 A1, reference compound] | −30.4% | 5.6% (n.s.) |  |  | 
5 | C[C@]1(c2nc(NC(=O)c3ncc(C(F)(F)F)cc3Cl)ccc2F)N=C(N)OCC1(F)F [Example 7, 3-Chloro-5-trifluoromethyl-pyridine-2-carboxylic acid [6-((R)-2-amino-5,5-difluoro-4-methyl-5,6-dihydro-4H-[1,3]oxazin-4-yl)-5-fluoro-pyridin-2-yl]-amide] | −67.9% | −63.6% |  |  | 
6 | C[C@]1(c2nc(NC(=O)c3ncc(C#N)cc3Cl)ccc2F)N=C(N)OCC1(F)F [Example 2, 3-Chloro-5-cyano-pyridine-2-carboxylic acid [6-((R)-2-amino-5,5-difluoro-4-methyl-5,6-dihydro-4H-[1,3]oxazin-4-yl)-5-fluoro-pyridin-2-yl]-amide] | −70.7% | −67.1% | 12 nM | 71 nM | 8 nM
7 | CC1(C)OC(N)=NC(C)(c2cc(NC(=O)c3ncc(C#N)cc3Cl)ccc2F)C1(F)F (centres unmarked) [22 WO 2011/069934 A1, reference compound] | −17.9% | −7.8% (n.s.) |  |  | 
8 | C[C@]1(c2nc(NC(=O)c3ncccc3Cl)ccc2F)N=C(N)OCC1(F)F [Example 20, 3-Chloro-pyridine-2-carboxylic acid [6-((R)-2-amino-5,5-difluoro-4-methyl-5,6-dihydro-4H-[1,3]oxazin-4-yl)-5-fluoro-pyridin-2-yl]-amide] |  |  | 360 nM | 95 nM | 88 nM
